# Measured values reported in US10927075B2, “Compositions and methods relating to the treatment of cancer, autoimmune disease, and neurodegenerative disease” (THE JACKSON LABORATORY, priority 2014, dated 2021).
# Entries after “also recorded” stand apart in the source; their conditions may differ.
# Tests used:
# [1] = test system: primary splenic B-cells from WT (AID-expressing) mice; test: Expansion and viability of activated primary splenic B-cells
# [2] = test system: Primary mouse B cells (WT); test: Micronuclei assay; assay type: cell-based; details: 100 nM, WT cells, 3 days
# primary B-cells (AID+) = test: Dose response in primary B-cells (AID+); assay type: cell-based; details: FIG. 10
# Experimental: Dose responses for C-1523 (blue) and C-1523-1a (red) in primary B-cells (AID+) was determined (FIG. 10).
# U2OS cells = test: DR-GFP reporter assay (HR repair of endonuclease generated DSB); assay type: cell-based, human; details: 100 nM or 1 μM
# RAD51 = RAD51 (Mus musculus, UniProt Q08297); test: RAD51 nucleocytoplasmic distribution by cell fractionation and Western blotting; assay type: cell-based; parameters: quantitation of RAD51 expression in nuclear and cytoplasmic fractions as determined by Western Blot; endogenous in cells
# RAD51, sequence (Q08297 whole entry): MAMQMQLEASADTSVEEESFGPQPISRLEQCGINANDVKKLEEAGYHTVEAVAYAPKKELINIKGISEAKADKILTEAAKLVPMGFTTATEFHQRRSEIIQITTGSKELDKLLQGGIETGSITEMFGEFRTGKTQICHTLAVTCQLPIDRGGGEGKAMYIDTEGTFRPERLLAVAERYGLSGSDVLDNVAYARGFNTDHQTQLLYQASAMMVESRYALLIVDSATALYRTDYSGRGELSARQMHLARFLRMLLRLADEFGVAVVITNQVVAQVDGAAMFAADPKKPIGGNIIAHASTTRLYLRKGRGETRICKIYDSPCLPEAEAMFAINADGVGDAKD
# Experimental: It was next tested whether C-1523 would affect RAD51 localization or DNA damage-induced focus formation. Primary mouse B-cells were treated with 100 nM C-1523 (or vehicle control) and given either 0 or 2.5Gy ionizing irradiation. Following recovery in cell culture, cells were fixed and stained for immunofluorescence imaging to measure subcellular localization of RAD51. […] To confirm the effect of C-1523 on RAD51 subcellular localization, nucleocytoplasmic distribution was independently measured following C-1523 treatment by cell fractionation and Western blotting (FIG. 13D; Supplemental FIG. 2). […] This effect on subcellular localization was specific to RAD51, as localization of NF-kB, which undergoes nuclear translocation and homing to genomic target sites after cell stimulation, was unaffected by C-1523 exposure (FIGS. 13E-13F).
# B cells = test: Western Blot of apoptotic markers PARP-1 and caspase-9; assay type: cell-based
# Experimental: Cell death mediated by C-1523 is p53-dependent. It was hypothesized that AID-dependent cytotoxicity induced by C-1523 would be associated with p53-mediated apoptosis. To test the importance of p53, a central regulator of cellular responses to DNA damage, viability was measured in mouse primary B-cells from Trp53+/+ versus Trp53−/− mice following exposure to C-1523. […] Caspase 3 activation, a marker of apoptotic cell death, was measured in C-1523 treated B-cells. B-cells were stained with an antibody that recognizes cleaved, activated caspase-3 (AC3) and the number of AC3-positive cells was measured via immunofluorescence microscopy. Following 10 Gy of ionizing irradiation Trp53+/+(WT), but not Trp53−/− cultures show a >30-fold increase in the percentage of AC3+ cells, confirming Trp53 dependent apoptosis in these cells after DNA damage. […] In order to more completely rule out apoptosis as the mode of cell death following C-1523 treatment in B cells, the expression of other common markers of apoptotic induction was examined via Western Blot.
# MEC-1 cells = test: Micronuclei assay; assay type: cell-based, human; details: 100 nM for 3 days
# AID+/+ or AID−/− B-cells = test: Cell cycle analysis by propidium iodide staining and flow cytometry; assay type: cell-based; details: 100 nM, up to 96 hours
# Experimental: (§1) AID+/+ or AID−/− B-cells were cultured with 100 nM and cell cycle profiles were determined by propidium iodide staining and flow cyotmetry at intervals up to 96 hours. Non-activated (CD40) cells were used as a negative control; activated cells treated with the microtuble poison colcemid (ACT+colcemid) were used as a positive control.
# as §1, with “control. Nuclei fragmentation analysis of primary, AID expressing B-cells treated with 100 nM C-1523 was conducted (FIG. 22).” for “control.”
# [3] = test system: primary, activated WT versus AID−/− cells; test: RNASeq and Ingenuity Pathways Analysis; assay type: cell-based, mouse; details: 100 nM, 60 hours after activation
# Experimental: FIG. 17A depicts a schematic for the fold-change (FC) analysis performed on RNASeq data from the indicated treatment groups. RNA was prepared from cells 60 hours after activation (αCD40 and IL-4) and treatment with DMSO or 100 nM C-1523. Pathway analysis was performed by Ingenuity Pathway Analysis (IPA). FIGS. 17B-17D depict the top 10 pathways for the Unique to FC1 (FIG. 17B) and FC2 (FIG. 17C) analysis and all pathways for the FC1>FC2 (DOWN) and F2>FC1 (UP) analysis (FIG. 17D). Within each bar (in white), is the ratio of genes from that pathway implicated by IPA. The dashed line indicates the 0.05 significance threshold for significant (bars crossing it) vs non-significant pathways. The mechanism of cell death is non-apoptotic and is via mitotic catastrophe.
# C-1523 induces non-apoptotic cell death via non-apoptotic mitotic catastrophe. The surprising lack of apoptotic cell death induced by C-1523 prompted us to evaluate gene expression signatures to identify other potential cell death pathways. […]
# RNASeq Analysis. […] The filtered and trimmed reads were then aligned to mm10 using tophat (v2.0.7). The aligned bam file was then passed through Cufflinks (v2.0.2) and reads per gene are counted using htseq-count. edgeR. […]
smiles,measurement,setting,value
"CC(=O)Nc1ccc(/C=C/c2ccc(NC(=S)NC(C)C)cc2S(=O)(=O)O)c(S(=O)(=O)O)c1 [C-1523, (E)-5-acetamido-2-(4-(3-isopropylthioureido)-2-sulfonatostyryl)benzenesulfonate]",dependence of induced cell death,[1],both AID and Trp53 dependent
same,shape of dose response,[1]; 1 to 1000 nM,biphasic response
same,B-cell viability,"[1]; 50, 100, 150, 200, or 250 nM, 3 days, Trypan blue",dose-dependent reduction in B-cell viability; also recorded: dose dependent reduction in B-cell viability
same,cellular expansion,"[1]; 50-250 nM, four days, αCD40+IL-4 activation",selectively suppressed cellular expansion
same,PI+ cells (cell death),"[1]; day 4, flow cytometry",significant increase in PI+ cells
same,increase in micronuclei compared to DMSO,[2],9 fold
same,concentration above which dose response is inverted,primary B-cells (AID+),above 100 nM
same,change in GFP-positive cells,U2OS cells,no significant change
same,"fraction of RAD51 localized to the nucleus, following irradiation",RAD51,"small, but measurable reduction"
same,cleavage of PARP-1 or caspase-9,B cells; 2 days following activation,no cleavage of PARP-1 or caspase-9 was observed
same,cleaved PARP-1 and caspase-9,B cells; 3 days,not due to C-1523 treatment specifically
same,micronuclei in treated cells versus vehicle,MEC-1 cells,approximately 3.5 fold
same,effect on cell cycle,AID+/+ or AID−/− B-cells,minimal effect on cell cycle; also recorded: minimal differences
same,most significantly altered pathways (IPA),[3],did not identify any previously annotated cell death pathways
